This note sets out measurements from US20120289492A1, “METHODS OF TREATING MITOCHONDRIAL DISORDERS USING METALLOPORPHYRINS” (priority 2009, published 2012).

For data set [1], the system named is paraquat (PQ2+)-induced cell injury. The data set is described as follows: Paraquat (PQ2+)-induced cell injury assay. Type of data set: cell-based. The note with it: data not shown.
The test system of data set [2] is mouse lymphoma. The data set is described as follows: Mouse lymphoma test (mutagenicity). Type of data set: cell-based. The text has this:
Safety profile: A prototypical metalloporphyrin (AEOL10150; FIG. 1) has completed phase 1 trials in amyotrophic lateral sclerosis patients. Extensive safety studies of this compound have been completed in mice, monkeys and rats. […] Safety studies for the structurally related compound, AEOL11207 need to be completed once its efficacy is established in animal studies.

For data set [3], the system named is Wild-type mice. The data set is described as follows: Tolerability in wild-type mice. The note with it: 5 mg/kg daily, up to 20 days of treatment. In kind it is in vivo.
The nature of data set [4]: Peroxynitrite-induced oxidation of dihydrorhodamine-123. Type of data set: biochemical. The settings on record: peroxynitrite 1 μM, dihydrorhodamine 123 10 μM, pH 7.4. An excerpt: Mitochondrial oxidative stress production To determine if increased oxidative stress occurred in mitochondrial fractions, the levels of CoASH, CoASSG, aconitase, ascorbate, cysteine, methionine and 3-NT were examined in the forebrain of Sod2 −/− mice at 15-16 days old. GSH is the most abundant thiol containing antioxidant in tissues and brain (Meister & Anderson (1983) Annu Rev Biochem 52, 711-60) and plays an important role in preventing oxidative damage. […] To determine if direct scavenging of ONOO− could result in decreased 3NT levels by AEOL11207, we measured its ability to inhibit ONOO-induced oxidation of dihydrorhodamine-123.
Measurement of peroxynitrite-induced oxidation of dihydrorhodamine-123 inhibition by metalloporphyrins The peroxynitrite-dependent oxidation of dihydrorhodamine-123 to rhodamine-123 is measured based on previously described methods (Kooy et al. (1994) Free Radic Biol Med 16, 149-56; Szabo, et al. (1996) FEBS Lett 381, 82-6). […] After 10 min incubation at room temperature, the fluorescence of rhodamine 123 was measured using a fluorimeter (Perkin-Elmer, Norwalk, Conn.) at an excitation wavelength of 500 nm, emission wavelength of 536 nm

Data set [5] has as its system mitochondrial SOD activity. Description: SOD2 activity assay in forebrain mitochondrial fractions. Type of data set: in vivo. The settings on record: treated Sod2−/− mice vs Sod2+/+ mice (1.56±0.17 units/mg protein).

The structures appear in SMILES notation.

One may read the IC50 as the point on the concentration scale where inhibition reaches its midpoint. Read a low IC50 as higher potency. Molecule `COC(=O)c1c2nc(c(C(F)(F)F)c3ccc([n-]3)c(C(=O)OC)c3nc(c(C(F)(F)F)c4ccc1[n-]4)C=C3)C=C2.[Cl-].[Mn+3]` [AEOL11207] yielded a protective range in data set [1] of 30 to 100 nM. Further, the “mutagenicity, mouse lymphoma test” value in data set [2] is listed as “negative”. In addition, in data set [3], the ill effects result is recorded as “no ill effects” and the mortality result is given as “no mortality”. Moreover, the midpoint of inhibition in data set [4], the IC50, lay at 3.7 µM. Further, the “Cyanide insensitive SOD activity compared to Sod2+/+ mice” value in data set [5] is given as about 40%.
